One test has as its target c-Rel protein (Homo sapiens (Human), UniProt Q04864). The experiment in a line: Electrophoretic Mobility Shift Assay (EMSA), Rel/NF-κB DNA binding inhibition. Conditions: 10 nM c-Rel protein, phosphor-labeled CD28RE oligonucleotide. As to the method: Electrophoretic Mobility Shift Assay (EMSA)
DNA binding reaction (20 μL) was carried out in 1×DNA Binding Buffer (10 mM Tris, 40 mM NaCl, 1 mM EDTA, 4% glycerol) with 10 nM c-Rel protein and 0.5 ng phosphor-labeled CD28RE oligonucleotide for 10 minutes at room temperature in 96-well plates. Test compounds, in serial dilutions, were added into each well, and further incubated for 15 minutes before loading onto native 5% polyacrylamide gel. Electrophoresis proceeded for 2.5 hours at 160V. Radioactive signals were quantified using Phospho-Imager. IC50 of compounds of example 1 to 75 were determined by quantifying the intensity of Rel/NF-κB inhibition in EMSA using phospho-imager. An example of EMSA data of the present invention is shown for compound 6 in FIG. 2.

The test system of the next test is NF-κB. The experiment in a line: NF-κB GFP Assay (NFκB/Jurkat/GFP transcriptional reporter cell line). In kind it is cell-based. Conditions: Homo sapiens; NF-κB/Jurkat/GFP reporter cells, TNF-α 5 ng/ml, 24 hours; read-out: NF-KB GFP IC50. As to the method:
NFκB/Jurkat/GFP transcriptional reporter cell line was obtained from SBI System Biosciences. NF-κB/Jurkat/GFP™ Reporter cells (5×10^5 cells) were plated at a concentration of 1 million cells/ml into each well of a 24-well plate. TNF-α (5 ng/ml) was added. Compounds were added via serial dilutions to corresponding wells. After 24 hours, 100 μl of the cells were transferred to a well of a Costar® UV plate (96 well, No lid, w/ UV Transparent Flat Bottom, Corning, N.Y., Cat#3635) and the intensity of GFP fluorescence was measured (Excitation 485+/−20, Emission 528+/−20) in a Synergy™ HT Multi-Detection Microplate Reader (BioTech, Winooski, Vt.). The intensities of GFP measured were plotted against the […].

Molecules are shown by their SMILES.

Among the data in US10226464B2, “Small molecule NF-κB inhibitors” (ImmuneTarget, Inc., priority 2015, dated 2019) are IC50 values, retold here.

Sequence of c-Rel protein (Q04864 whole entry): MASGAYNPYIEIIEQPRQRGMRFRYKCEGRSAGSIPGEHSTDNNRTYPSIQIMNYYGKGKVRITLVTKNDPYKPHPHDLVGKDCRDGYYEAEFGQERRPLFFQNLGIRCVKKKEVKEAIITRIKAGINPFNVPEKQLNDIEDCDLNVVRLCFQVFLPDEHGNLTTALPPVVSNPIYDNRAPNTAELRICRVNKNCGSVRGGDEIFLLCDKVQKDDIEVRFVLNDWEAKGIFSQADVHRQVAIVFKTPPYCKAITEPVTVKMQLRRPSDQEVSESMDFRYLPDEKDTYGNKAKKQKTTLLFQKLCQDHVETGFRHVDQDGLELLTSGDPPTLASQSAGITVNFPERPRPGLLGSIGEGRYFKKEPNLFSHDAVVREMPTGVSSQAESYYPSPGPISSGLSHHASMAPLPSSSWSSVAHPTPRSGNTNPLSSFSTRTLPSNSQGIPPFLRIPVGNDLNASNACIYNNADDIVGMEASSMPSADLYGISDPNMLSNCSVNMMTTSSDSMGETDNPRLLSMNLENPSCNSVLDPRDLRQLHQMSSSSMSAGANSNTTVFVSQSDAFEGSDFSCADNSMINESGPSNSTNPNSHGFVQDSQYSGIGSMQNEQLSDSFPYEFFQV

Regarding `CCCCCCOc1ccc2cc3c(=O)[nH]c(=O)nc-3oc2c1Cl` [Compound 44], the IC50 on c-Rel protein was less than 0.5 µM; in the test with NF-κB, less than 3 µM.
As to `CCCCOc1ccc2cc3c(=O)[nH]c(=O)nc-3oc2c1F` [Compound 45], the IC50 was less than 0.5 µM on c-Rel protein and less than 5 µM in the test on NF-κB.
In the same order, the values of `CCCCCCOc1ccc2cc3c(=O)[nH]c(=O)nc-3oc2c1F` [Compound 46] are less than 0.5 µM and less than 5 µM.
Consider `CC(C)CCCOc1ccc2cc3c(=O)[nH]c(=O)nc-3oc2c1F` [Compound 47], for which the IC50 was less than 1 µM at c-Rel protein and less than 5 µM with NF-κB.
In the same order, the values of `CC(C)COc1ccc2cc3c(=O)[nH]c(=O)nc-3oc2c1F` [Compound 48] are less than 0.5 µM and less than 5 µM.
Taken in the same sequence, the figures for `CCOc1ccc2cc3c(=O)[nH]c(=O)nc-3sc2c1` [Compound 49, 8-ethoxy-2H-thiochromeno[2,3-d]pyrimidine-2,4(3H)-dione] were less than 1 µM and less than 5 µM.
In the same order, the values of `CCCCOc1ccc2cc3c(=O)[nH]c(=O)nc-3oc2c1` [Compound 50] are less than 1 µM and less than 5 µM.
In the case of `CC(=O)OCCCCOc1ccc2cc3c(=O)[nH]c(=O)nc-3oc2c1` [Compound 51], the IC50 at c-Rel protein was less than 1 µM; in the test with NF-κB, less than 5 µM.
In the same order, the values of `CCCCCCCOc1ccc2cc3c(=O)[nH]c(=O)nc-3oc2c1F` [Compound 52] are less than 0.5 µM and less than 5 µM.
Taken in the same sequence, the figures for `O=C(O)CCCCCOc1ccc2cc3c(=O)[nH]c(=O)nc-3oc2c1Cl` [Compound 53, 6-((9-chloro-2,4-dioxo-3,4-dihydro-2H-chromeno[2,3-d]pyrimidin-8-yl)oxy)hexanoic acid] were less than 5 µM and less than 20 µM.
Taken in the same sequence, the figures for `O=C(O)CCCOc1ccc2cc3c(=O)[nH]c(=O)nc-3oc2c1Cl` [Compound 55] were less than 5 µM and less than 20 µM.
As for `O=C(O)COc1ccc2cc3c(=O)[nH]c(=O)nc-3oc2c1Cl` [Compound 56], the half-maximal inhibitory concentration (IC50) was less than 5 µM on c-Rel protein and less than 20 µM with NF-κB.
In the same order, the values of `COC(=O)CCCCOc1ccc2cc3c(=O)[nH]c(=O)nc-3oc2c1Cl` [Compound 57] are less than 5 µM and less than 20 µM.
With `CC(=O)OCCCCCCOc1ccc2cc3c(=O)[nH]c(=O)nc-3oc2c1Cl` [Compound 58], the results for the IC50 at c-Rel protein and in the test with NF-κB were less than 5 µM and less than 20 µM, respectively.
`CC(=O)OCCCOc1ccc2cc3c(=O)[nH]c(=O)nc-3oc2c1Cl` [Compound 59]: the concentration for half-maximal inhibition (IC50) on c-Rel protein is less than 5 µM; in the test with NF-κB, less than 20 µM.
In the same order, the values of `CC(=O)OCCCCOc1ccc2cc3c(=O)[nH]c(=O)nc-3oc2c1Cl` [Compound 60, 4-((9-chloro-2,4-dioxo-3,4-dihydro-2H-chromeno[2,3-d]pyrimidin-8-yl)oxy)butyl acetate] are less than 5 µM and less than 20 µM.
For the molecule `COCCOCCOc1ccc2cc3c(=O)[nH]c(=O)nc-3oc2c1` [Compound 61, 8-(2-(2-methoxyethoxy)ethoxy)-2H-chromeno[2,3-d]pyrimidine-2,4(3H)-dione], the values for the 50% inhibitory concentration (IC50) at c-Rel protein and in the test on NF-κB were less than 1 µM and less than 5 µM, respectively.
Taken in the same sequence, the figures for `COCCOCCOc1ccc2cc3c(=O)[nH]c(=O)nc-3oc2c1Cl` [Compound 62] were less than 1 µM and less than 5 µM.
Take `COCCOCCOc1ccc2cc3c(=O)[nH]c(=O)nc-3oc2c1F` [Compound 63]: the results for the IC50 at c-Rel protein and in the test on NF-κB were less than 1 µM and less than 5 µM, respectively.
Taken in the same sequence, the figures for `COCCOCCOc1cc2oc3nc(=O)[nH]c(=O)c-3cc2cc1Cl` [Compound 64] were less than 1 µM and less than 5 µM.
As to `COCCOCCOc1cc2oc3nc(=O)[nH]c(=O)c-3cc2cc1F` [Compound 65], the half-maximal inhibitory concentration (IC50) was less than 1 µM at c-Rel protein and less than 5 µM in the test with NF-κB.
Taken in the same sequence, the figures for `COCCCCOc1ccc2cc3c(=O)[nH]c(=O)nc-3oc2c1Cl` [Compound 66, 9-chloro-8-(4-methoxybutoxy)-2H-chromeno[2,3-d]pyrimidine-2,4(3H)-dione] were less than 1 µM and less than 5 µM.
In the same order, the values of `COCCCCOc1ccc2cc3c(=O)[nH]c(=O)nc-3oc2c1` [Compound 67] are less than 1 µM and less than 5 µM.
As for `COCCCCOc1ccc2cc3c(=O)[nH]c(=O)nc-3oc2c1F` [Compound 68], the concentration for half-maximal inhibition (IC50) on c-Rel protein is less than 1 µM; in the test with NF-κB, less than 5 µM.
In the same order, the values of `COCCCCOc1cc2oc3nc(=O)[nH]c(=O)c-3cc2cc1Cl` [Compound 69] are less than 1 µM and less than 5 µM.
In the same order, the values of `COCCCCOc1cc2oc3nc(=O)[nH]c(=O)c-3cc2cc1F` [Compound 70] are less than 1 µM and less than 5 µM.
With `COCCOCCCOc1ccc2cc3c(=O)[nH]c(=O)nc-3oc2c1` [Compound 71], the IC50 on c-Rel protein is less than 1 µM; in the test on NF-κB, less than 5 µM.
For `COCCOCCCOc1ccc2cc3c(=O)[nH]c(=O)nc-3oc2c1Cl` [Compound 72], the IC50 is less than 1 µM at c-Rel protein and less than 5 µM in the test with NF-κB.
`COCCOCCCOc1ccc2cc3c(=O)[nH]c(=O)nc-3oc2c1F` [Compound 73]: the IC50 at c-Rel protein is less than 1 µM; in the test with NF-κB, less than 5 µM.
In the same order, the values of `COCCOCCCOc1cc2oc3nc(=O)[nH]c(=O)c-3cc2cc1Cl` [Compound 74] are less than 1 µM and less than 5 µM.
`COCCOCCCOc1cc2oc3nc(=O)[nH]c(=O)c-3cc2cc1F` [Compound 75, 7-fluoro-8-(3-(2-methoxyethoxy)propoxy)-2H-chromeno[2,3-d]pyrimidine-2,4(3H)-dione]: the IC50 on c-Rel protein is less than 1 µM; in the test on NF-κB, less than 5 µM.

For orientation: IC50 means the concentration at which inhibition is half-maximal.
